ChEMBL document CHEMBL1138473, “NMR and molecular dynamics study of the binding mode of naphthalene-N-sulfonyl-D-glutamic acid derivatives: novel MurD ligase inhibitors” (J Med Chem, 2009)

Test: Inhibition of Escherichia coli BL21-A1 MurD

| Structure (SMILES) | IC50 [µM] |
| --- | --- |
| CCOC(=O)COc1ccc2cc(S(=O)(=O)N[C@H](CCC(=O)O)C(=O)O)ccc2c1 | 192 |
| O=C(O)CC[C@@H](NS(=O)(=O)c1ccc2cc(OCCCc3ccccc3)ccc2c1)C(=O)O | 132 |
| O=C(O)CC[C@@H](NS(=O)(=O)c1ccc2cc(OCC(=O)O)ccc2c1)C(=O)O | 630 |
| CCCCOc1ccc2ccc(S(=O)(=O)N[C@H](CCC(=O)O)C(=O)O)cc2c1 | 180 |
| O=C(O)CC[C@@H](NS(=O)(=O)c1ccc2cc(OCc3ccccc3)ccc2c1)C(=O)O | 239 |
| O=C(O)CC[C@@H](NS(=O)(=O)c1ccc2ccccc2c1)C(=O)O | 810 |
| CCCCOc1ccc2cc(S(=O)(=O)N[C@H](CCC(=O)O)C(=O)O)ccc2c1 | 280 |
| O=C(O)CC[C@@H](NS(=O)(=O)c1ccc2cc(OC3CCCC3)ccc2c1)C(=O)O | 400 |
| CCCCOc1ccc2cc(S(=O)(=O)N[C@@H](CCC(=O)O)C(=O)O)ccc2c1 | 710 |
